“Also recorded” adds a separate entry of the source.
Columns and labels:
[1] = system: GMC101 worms; experiment: Transcript analysis of the MSR and other stress pathways in GMC101 worms; assay type: in vivo, C. elegans; conditions: for UPR^er and HSR gene transcripts: AZD 0.3 μM; for MSR transcripts (UPR^mt, mitophagy and respiration genes): AZD 300 nM
Experimental: C. elegans: A total of ˜3000 worms per condition, divided in 3 biological replicates, was recovered in M9 buffer from NGM plates and lysed in the TriPure RNA reagent. Each experiment was repeated twice. Total RNA was transcribed to cDNA using QuantiTect Reverse Transcription Kit (Qiagen). Expression of selected genes was analyzed using the LightCycler480 system (Roche) and LightCycler® 480 SYBR Green I Master reagent (Roche). For C. elegans, 2 housekeeping genes were used to normalize the expression data, namely actin (act-1) and peroxisomal membrane protein 3 (pmp-3).
atfs-1p::atfs-1 expression vector was created by amplifying 1488 bp sequence upstream from the transcription start site of atfs-1 coding region by using worm genomic DNA for the promoter region. The PCR product was digested with PciI and AgeI and ligated into the pPD30.38 expression vector containing gfp coding sequence cloned between inserted AgeI and NotI restriction sites. The atfs-1 coding sequence (CDS) was instead amplified using C. elegans cDNA, and the PCR product was inserted into pPD30.38 downstream of the promoter region, between AgeI and NheI restriction sites. The correctness of the atfs-1p::atfs-1 construct was assessed by sequencing with the indicated pPD30.38 and atfs-1 seq. primers. Two independent GMC101 lines (AUW9 and AUW10), and one CL2122 strain (AUW11) carrying atfs-1p::atfs-1 transgene as extrachromosomal array were analyzed in the study. Injection marker myo-2p::gfp was cloned by amplifying 1179 bp sequence upstream from the transcription start site of myo-2 coding region by using C. elegans genomic DNA. The PCR product was digested with PciI and AgeI and ligated into the pPD30.38 expression vector containing atfs-1::gfp to replace atfs-1 promoter sequence between PciI and AgeI restriction sites. All transgenic strains were created by using microinjection. For the generation of the GMC101 lines AUW12 and AUW13, GMC101 males were generated after exposure of L4 worms to 30° C. for 3 h, and let mate with L4 from clk-1 or nuo-6 mutant strains. The derived progeny was selected for homozygosis of the GMC101 intestinal GFP marker for few generations, and the homozygosis of the clk-1 or nuo-6 mutant alleles verified by amplifying and sequencing a 500 bp region of the worms genomic DNA encompassing the desired mutation. Bacterial feeding RNAi experiments were carried out as described. Clones used were atfs-1 (ZC376.7), ubl-5 (F46F11.4), mrps-5 (E02A10.1), dct-1 (C14F5.1), daf-16 (R13H8.1), sir-2.1 (R11A8.4), xbp-1 (R74.3) and hsf-1 (Y53C10A.12). Clones were purchased from GeneService and verified by sequencing. The novel atfs-1 RNAi construct (atfs-1 #2) used in this study was generated by amplifying 1400 bp of the atfs-1 genomic DNA sequence, starting from the last exon of atfs-1. Gateway cloning (Thermo Scientfic) was used to insert the PCR product into the gateway vector pL4440gtwy (Addgene #11344), and verified by sequencing. atfs-1 knockdown was verified by qPCR for all the atfs-1 RNAi constructs used herein. For phenotypic studies (see below), worms at the L4 larval stage were allowed to reach adulthood and lay eggs on the treatment plates. The deriving F1 worms were shifted from 20° C. to 25° C. at the L4 stage to induce amyloid accumulation and paralysis, and phenotypes assessed over time as indicated. For double RNAi experiments, we used a combination of atfs-1 with mrps-5 RNAi constructs as indicated in the text, with 80% amount of atfs-1 and 20% mrps-5 RNAi. For mRNA analysis, synchronized L1 worms were exposed to the treatment plates, and shifted from 20° C. to 25° C. when reaching the L4 stage. After 24 hours incubation at 25° C., corresponding to day 1 of adulthood, they were harvested in M9 for analysis.
Doxycycline was obtained from Sigma-Aldrich and dissolved in water. For experiments, a final concentration of 15 μg/mL was used. Olaparib (AZD2281) was dissolved in DMSO to experimental concentrations of 300 nM. […]

[2] = system: GMC101 worms; experiment: Western-blot of amyloid aggregation in GMC101 worms; assay type: in vivo, C. elegans; conditions: for Aβ aggregation (proteotoxic stress): GMC101, day 1 of adulthood, dox 15 μg/mL, NR 1 mM, AZD 300 nM
Experimental: C. elegans: Worms were lysed by sonication with RIPA buffer containing protease and phosphatase inhibitors (Roche), and analyzed by SDS-PAGE and western blot. The concentration of extracted protein was determined by using the Bio-Rad Protein Assay. Proteins were detected using the following antibodies: anti-β-actin (Sigma), anti-tubulin (Santa Cruz), atp-5, ucr-1 (Oxphos cocktail, Abcam), anti-β-Amyloid, 1-16 (6E10) (BioLegend). In addition to the housekeeping proteins, loading was monitored by Ponceau Red to ensure a homogeneous loading. Pixel intensity was quantified by using ImageJ software. Each immunoblot experiment was repeated at least twice using 3 biological replicates each containing approximately 1000 worms.
During the assays, animals were exposed to Myriocin (dissolved in DMSO) from the egg stage on plates seeded with live HT115 E. coli bacteria. Control plates seeded with the same bacteria were prepared with the corresponding concentrations of DMSO. The day of the experiment (day 1 of adulthood, 3 days after hatching), the GMC101 population was shifted to 25° C. in order to induce the amyloid deposition in the body wall muscle. ˜1000 worms were used for western blotting assays.
(§1) Worms were lysed by sonication with RIPA buffer containing protease and phosphatase inhibitors (Roche), and analyzed by western blot. The concentration of extracted protein was determined by the Bio-Rad Protein Assay. Proteins were detected using the following antibodies: anti-β-actin (Sigma) and anti-β-Amyloid (BioLegend). In addition to the housekeeping proteins, loading was monitored by Ponceau Red to ensure a homogeneous loading. The immunoblot experiment employed 3 biological replicates, each containing approximately 1000 worms.
as §1, with “extracted proteins” for “extracted protein”, “3 biologicals” for “3 biological”
The GMC101 worms were recovered 24 h after being shifted at 25° C. The population was treated with UA at two different concentrations, ie 20 uM and 50 uM.

[3] = GMC101, day 1 of adulthood, dox 15 μg/mL, NR 1 mM

Compound	UPR^er and HSR gene transcripts [1, 3]	MSR transcripts (UPR^mt, mitophagy and respiration genes) [1, 3]	Aβ aggregation (proteotoxic stress) [2]	daf-16 and daf-16 target gene transcripts [1, 3]	oxidative stress and mitochondrial stress response genes (sod-2, sod-4, atfs-1, skn-1) ([1]; GMC101, myriocin 5 uM and 10 uM)	UPR^mt and mitophagy genes (hsp-6, hsp-60, dct-1, pdr-1) ([1]; GMC101, myriocin treatment)	accumulation of amyloid-β aggregates ([2]; GMC101, Day 1 of adulthood, Myriocin 5 uM and 10 uM)
O=C(c1cc(Cc2n[nH]c(=O)c3ccccc23)ccc1F)N1CCN(C(=O)C2CC2)CC1 [AZD, Olaparib, reference compound]	only a minimal impact	induced the MSR	reduced proteotoxic stress	–	–	–	–
NC(=O)c1ccc[n+]([C@@H]2O[C@H](CO)[C@@H](O)[C@H]2O)c1 [NR, Nicotinamide Riboside triflate]	only a minimal impact	induced the MSR	reduced proteotoxic stress	did not affect	–	–	–
CCCCCCC(=O)CCCCCC/C=C/C[C@@H](O)[C@H](O)[C@@](N)(CO)C(=O)O [Myriocin, (E,2S,3R,4R)-2-amino-3,4-dihydroxy-2-(hydroxymethyl)-14-oxoicos-6-enoic acid]	–	–	–	–	induction	upregulation	dose-dependently decreased; also recorded: dose-dependent reduction

— patent US20220110902A1, “Methods of treating amyloid-beta peptide diseases” (Ecole Polytechnique Federale de Lausanne, priority 2016, published 2022)
